Assays:
[1] = biological target: T1, Amine oxidase [flavin-containing] A (Rattus norvegicus, UniProt P21396); test: Competitive inhibition of rat liver MAO-A after 60 mins using p-tyramine as substrate by spectrophotometry
T1 sequence (P21396 whole entry): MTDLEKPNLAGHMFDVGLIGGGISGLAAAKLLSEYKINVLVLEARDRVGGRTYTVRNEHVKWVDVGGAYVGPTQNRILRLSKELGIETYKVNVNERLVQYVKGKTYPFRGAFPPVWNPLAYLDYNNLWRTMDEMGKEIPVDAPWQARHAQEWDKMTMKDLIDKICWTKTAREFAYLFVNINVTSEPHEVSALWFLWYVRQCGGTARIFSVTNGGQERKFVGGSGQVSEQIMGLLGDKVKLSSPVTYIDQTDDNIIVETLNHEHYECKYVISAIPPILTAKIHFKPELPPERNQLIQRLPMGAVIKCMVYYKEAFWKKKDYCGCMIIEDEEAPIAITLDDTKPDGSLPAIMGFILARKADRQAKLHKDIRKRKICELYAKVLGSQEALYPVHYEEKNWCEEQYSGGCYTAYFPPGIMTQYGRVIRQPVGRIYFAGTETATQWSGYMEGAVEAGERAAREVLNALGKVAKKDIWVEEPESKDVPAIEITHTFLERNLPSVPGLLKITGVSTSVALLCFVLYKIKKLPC

[2] = biological target: T2, Amine oxidase [flavin-containing] A (Homo sapiens, UniProt P21397); test: Competitive inhibition of human recombinant MAO-A after 60 mins using p-tyramine as substrate by spectrophotometry
T2 sequence (P21397 whole entry): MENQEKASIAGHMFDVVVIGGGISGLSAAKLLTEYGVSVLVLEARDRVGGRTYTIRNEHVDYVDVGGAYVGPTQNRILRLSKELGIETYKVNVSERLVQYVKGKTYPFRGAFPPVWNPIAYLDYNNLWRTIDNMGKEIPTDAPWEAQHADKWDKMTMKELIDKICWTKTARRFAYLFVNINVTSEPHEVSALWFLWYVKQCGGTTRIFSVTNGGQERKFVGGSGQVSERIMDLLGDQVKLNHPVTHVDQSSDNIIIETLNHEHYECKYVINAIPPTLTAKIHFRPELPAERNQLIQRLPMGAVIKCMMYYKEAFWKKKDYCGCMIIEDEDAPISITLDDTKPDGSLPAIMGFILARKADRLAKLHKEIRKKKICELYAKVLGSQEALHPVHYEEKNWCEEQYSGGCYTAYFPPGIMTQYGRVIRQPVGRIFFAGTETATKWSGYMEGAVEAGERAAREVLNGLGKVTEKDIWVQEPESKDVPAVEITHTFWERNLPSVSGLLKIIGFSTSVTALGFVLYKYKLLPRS

[3] = biological target: T3, Amine oxidase [flavin-containing] B (Rattus norvegicus, UniProt P19643); test: Competitive inhibition of rat liver MAO-B after 60 mins using p-tyramine as substrate by spectrophotometry
T3 sequence (P19643 whole entry): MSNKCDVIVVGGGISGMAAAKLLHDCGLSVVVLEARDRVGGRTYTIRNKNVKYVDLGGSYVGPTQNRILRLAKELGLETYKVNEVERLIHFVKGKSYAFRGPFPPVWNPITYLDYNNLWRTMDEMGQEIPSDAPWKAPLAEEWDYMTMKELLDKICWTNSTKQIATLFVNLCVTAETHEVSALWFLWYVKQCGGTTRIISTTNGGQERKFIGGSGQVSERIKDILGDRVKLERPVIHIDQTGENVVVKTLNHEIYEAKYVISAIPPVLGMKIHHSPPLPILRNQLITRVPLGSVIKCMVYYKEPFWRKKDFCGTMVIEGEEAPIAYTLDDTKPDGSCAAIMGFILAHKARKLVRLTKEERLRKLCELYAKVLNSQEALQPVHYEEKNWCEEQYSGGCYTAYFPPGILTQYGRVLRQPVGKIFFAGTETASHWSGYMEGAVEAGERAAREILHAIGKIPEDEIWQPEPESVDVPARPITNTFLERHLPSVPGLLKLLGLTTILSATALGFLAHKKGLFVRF

[4] = biological target: T4, Amine oxidase [flavin-containing] B (Homo sapiens, UniProt P27338)
T4 sequence (P27338 whole entry): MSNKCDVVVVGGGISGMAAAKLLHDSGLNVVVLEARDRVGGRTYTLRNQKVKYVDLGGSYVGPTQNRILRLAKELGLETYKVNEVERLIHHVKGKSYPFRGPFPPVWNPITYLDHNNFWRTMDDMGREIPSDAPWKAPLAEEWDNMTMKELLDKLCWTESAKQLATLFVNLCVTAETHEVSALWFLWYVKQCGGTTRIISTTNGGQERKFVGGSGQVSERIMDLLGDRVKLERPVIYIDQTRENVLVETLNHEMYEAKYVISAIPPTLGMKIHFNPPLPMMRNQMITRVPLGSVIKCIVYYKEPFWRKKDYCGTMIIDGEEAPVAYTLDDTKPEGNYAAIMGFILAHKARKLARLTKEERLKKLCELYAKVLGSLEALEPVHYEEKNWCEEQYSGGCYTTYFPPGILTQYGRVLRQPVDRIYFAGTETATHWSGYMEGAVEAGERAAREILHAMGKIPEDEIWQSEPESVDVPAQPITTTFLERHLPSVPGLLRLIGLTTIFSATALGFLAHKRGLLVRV
Description: Competitive inhibition of human recombinant MAO-B after 60 mins using p-tyramine as substrate by spectrophotometry

SMILES	Ki [1]	Ki [2]	Ki [3]	Ki [4]
O=[N+]([O-])c1ccc(C2CC(c3c4ccccc4cc4ccccc34)=NN2)cc1 (stereo not drawn)	20.1 nM	17.1 nM	2.3 nM	1.15 nM
c1ccc(C2CC(c3c4ccccc4cc4ccccc34)=NN2)cc1 (stereo not drawn)	397 nM	332 nM	3.43 nM	4.21 nM
Oc1ccccc1C1CC(c2c3ccccc3cc3ccccc23)=NN1 (stereo not drawn)	77.6 nM	69.9 nM	5.91 nM	7.35 nM
O=[N+]([O-])c1cccc(C2CC(c3c4ccccc4cc4ccccc34)=NN2)c1 (stereo not drawn)	43.9 nM	32.2 nM	0.45 nM	0.31 nM
COc1ccc(C2CC(c3c4ccccc4cc4ccccc34)=NN2)cc1 (stereo not drawn)	230 nM	301 nM		

The remaining lines, values ahead:

Ki [1]	Ki [2]	Ki [3]	Ki [4]	SMILES
385 nM	225 nM	6.75 nM	7.51 nM	Oc1ccc(C2CC(c3c4ccccc4cc4ccccc34)=NN2)cc1 (stereo not drawn)
320 nM	281 nM	2.1 nM	1.8 nM	Clc1ccc(C2CC(c3c4ccccc4cc4ccccc34)=NN2)cc1 (stereo not drawn)
389 nM	250 nM	3.8 nM	3.56 nM	Cc1ccc(C2CC(c3c4ccccc4cc4ccccc34)=NN2)cc1 (stereo not drawn)
95.6 nM	81.5 nM	4.77 nM	5.54 nM	Oc1ccc(C2CC(c3c4ccccc4cc4ccccc34)=NN2)c(O)c1 (stereo not drawn)
242 nM	205 nM	9.91 nM	5.75 nM	c1ccc(C2CC(c3c4ccccc4cc4ccccc34)=NN2)nc1 (stereo not drawn)
